# Source: PubChem BioAssay AID179 (DTP/NCI, 2004)
# Calls of active or inactive are those of the source.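 Rule for the calls: active = compounds giving half or more protection of infected cells from virus-caused growth loss, again on retest; inactive = the rest.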
# System: CEM cells HIV-1 protection, formazan growth assay
# Test: NCI AIDS Antiviral Assay
# Settings: for IC50: measured here: growth of uninfected CEM cells
# How it was run: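 Soluble formazan readout of cell growth; CEM cells ± HIV-1; 5 drug concs. ≥50% protection → retest; ≥50% again = moderately active; reproducible 100% = confirmed active.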
SMILES,EC50 [µM],IC50 [µM],outcome
O=C(O)[C@@H]1CSC(C(O)C(O)C(O)C(O)CO)N1 (some centres not stated),> 200,> 200,
Cc1cc(NC(=O)Nc2ccc(N=Nc3cc(S(=O)(=O)[O-])c4cccc(S(=O)(=O)[O-])c4c3)c(C)c2)ccc1N=Nc1cc(S(=O)(=O)[O-])c2cccc(S(=O)(=O)[O-])c2c1.[Ga],> 75.9,13.5,
CC1=C2c3c(C)ccc4ccc(C)c(c34)C2(O)C(C)C1=O (configuration not stated),> 200,> 200,
c1ccc(-c2nc3cc4c(cc3n3cccc23)oc2ccccc24)cc1,> 100,85.1,
COc1ccc(C2N(c3ccc(C)c(N=C=O)c3)C(=O)N3C(c4ccc(OC)cc4)N(c4ccc(C)c(N=C=O)c4)C(=O)N23)cc1 (configuration not stated),> 200,12.6,
CCCC(=O)O[C@@H]1C(C)C2(O)C3C=C(C)C(=O)[C@@]3(O)CC(CO)=C[C@H]2C2C(C)(C)C21OC(=O)CCC (some centres not stated),,,inactive
COc1ccc(Cc2nc3ccccc3[nH]2)cc1OC,> 200,89.1,
CCCCNC=C1C(=O)Nc2ccccc2NC1=O,> 200,> 200,
CC(=O)Nc1oc(C)nc1C#N,> 200,> 200,
NP(N)(=O)Nc1ccccc1,10.5,> 200,
CC(=O)OCCN1CCOC(O)(c2cccc(C(F)(F)F)c2)C1 (configuration not stated),> 200,117,
O=C1OC(Cl)C(N=P(c2ccccc2)(c2ccccc2)c2ccccc2)=C1Cl (configuration not stated),> 12.3,9.33,
CCOc1ccc(Nc2nc3c(s2)C(=O)c2ccccc2C3=O)cc1,> 110,9.55,
CCOC(=O)c1oc2cc3c(c4c2c1-c1ccccc1N4C)C=CC(C)(C)O3,> 200,120,
CC(=O)N1CN2C(=O)CCC2c2cc(C)ccc21 (configuration not stated),,,inactive
CCC1(CC)SCc2nc3ccccc3n21,> 200,63.1,
O=C1C=C(C2=CC(=O)C(=O)c3ccccc32)c2ccccc2C1=O,> 151,1.91,
COc1ccc2c(c1)O[C@@H]1c3ccc(OC)cc3OC[C@H]21,,,inactive
CCOC(=O)c1cc(C2CCN(Cc3ccccc3)C2=O)c(C(=O)C(=[N+]=[N-])C(C)=O)[nH]1 (configuration not stated),> 200,> 200,
CC(=N\N=C\c1ccccn1)/C(C)=N/N=C/c1ccccn1,> 100,14.1,
Cc1[nH]c(=O)nc(N/N=C/c2ccc(Cl)cc2)c1C(=O)Nc1ccc(Cl)cc1,,,inactive
CCOC(=O)c1c2ccc(/C=C/c3ccccc3)ccc-2c(C(=O)OCC)c1N,> 7.08,> 7.08,

SMILES,EC50 [µM],IC50 [µM],outcome
C=CCP(=O)(c1ccccc1)c1ccccc1,0.0631,> 200,
O=C(Nc1ccccc1)OCCN=C1c2ccccc2C(Br)C(Br)c2ccccc21 (configuration not stated),> 200,0.794,
CC(C)c1cccc(C(C)C)c1NC(=O)C(=O)C1SC(=S)NC1=O (configuration not stated),> 692,> 692,
N=C(N)c1ccc(/C=C/c2ccc(C(=N)N)cc2O)cc1,> 1450,55,
Cc1nn(C(=O)c2ccncc2)c2c1C(c1cccc([N+](=O)[O-])c1)SC(N)=N2 (configuration not stated),,,inactive
Nc1c(S(=O)(=O)c2ccc(Cl)cc2)c2nc3ccccc3nc2n2ccnc12,151,> 200,
Cc1cc[n+](C2=C([O-])C3=C(C(=O)C2=O)C2c4ccccc4C3c3ccccc32)c(C)c1,> 33.9,31.6,
O=S1c2ccccc2NC(c2ccc3ccccc3c2)CC1c1ccccc1 (configuration not stated),> 7.08,> 7.08,
CC(O)CN1C(=O)C2C3C=CC(C3)C2C1=O (configuration not stated),> 200,> 200,
COc1ccc2c(CN3CCCCC3CO)cc3cc(OC)c(OC)cc3c2c1 (configuration not stated),,,inactive
COc1ccc(C(=O)Nc2ccc(S(=O)(=O)c3ccc(NC(=O)c4ccccc4SSc4ccccc4C(=O)Nc4ccc(S(=O)(=O)c5ccc(NC(=O)c6ccc(OC)cc6)cc5)cc4)cc3)cc2)cc1,16.6,151,
N#C/C(N)=C(\C#N)NC(=O)C(=O)N/C(C#N)=C(\N)C#N,69.2,> 200,
Cc1cccc(Nc2cn(CCOc3ccccc3)c(=O)[nH]c2=O)c1,> 200,27.5,
CC(=O)OCC1=C(CCC#N)N2C(=O)C(NC(=O)Cc3cccs3)C2S(=O)C1 (configuration not stated),> 200,95.5,
CC1=C(O)/C(=C/C(C)CCC/C(C)=C/C=C/C(C)CCCc2ccoc2)OC1=O (configuration not stated),,,inactive
Cc1cccc2c(=O)c3cccc([C@H](C)C(=O)O)c3oc12,> 200,> 200,
Brc1ccc2[nH]c3nc(N/N=C/c4cccnc4)nnc3c2c1,> 200,> 200,
COC(=O)C1CCc2c(OC)ccc(OC)c2C1=O (configuration not stated),,,inactive
Cn1cccc(C(=O)c2ccccc2)c1=O,,,inactive
COC(=O)C1(O)c2ccccc2N=C2C(=O)c3ccccc3N21 (configuration not stated),> 200,> 200,
Nc1nc(=S)c2c(ncn2CCO)[nH]1,> 324,126,
